Assay results reported in ChEMBL document CHEMBL5291721, “A preclinical secondary pharmacology resource illuminates target-adverse drug reaction associations of marketed drugs” (Nat Commun, 2023).

What was measured:
Thromboxane A2 receptor [1] = target: T1, Thromboxane A2 receptor (Homo sapiens, UniProt P21731); format: functional
T1 sequence (P21731 whole entry): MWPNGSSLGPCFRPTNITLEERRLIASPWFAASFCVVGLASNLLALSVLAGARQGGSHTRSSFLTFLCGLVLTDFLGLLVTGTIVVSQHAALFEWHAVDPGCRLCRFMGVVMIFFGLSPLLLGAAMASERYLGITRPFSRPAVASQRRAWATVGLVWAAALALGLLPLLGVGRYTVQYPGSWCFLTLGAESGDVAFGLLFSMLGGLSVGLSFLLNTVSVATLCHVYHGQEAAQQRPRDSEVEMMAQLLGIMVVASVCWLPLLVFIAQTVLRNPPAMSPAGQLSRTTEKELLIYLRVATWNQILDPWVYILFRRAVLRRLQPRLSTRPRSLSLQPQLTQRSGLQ

Thromboxane A2 receptor [2] = target: T1, Thromboxane A2 receptor; format: functional, cell-based
[3] = target: 5-hydroxytryptamine receptor 2B (Homo sapiens, UniProt P41595)
Bile acid receptor = target: T2, Bile acid receptor (Homo sapiens, UniProt Q96RI1); format: functional
T2 sequence (Q96RI1 whole entry): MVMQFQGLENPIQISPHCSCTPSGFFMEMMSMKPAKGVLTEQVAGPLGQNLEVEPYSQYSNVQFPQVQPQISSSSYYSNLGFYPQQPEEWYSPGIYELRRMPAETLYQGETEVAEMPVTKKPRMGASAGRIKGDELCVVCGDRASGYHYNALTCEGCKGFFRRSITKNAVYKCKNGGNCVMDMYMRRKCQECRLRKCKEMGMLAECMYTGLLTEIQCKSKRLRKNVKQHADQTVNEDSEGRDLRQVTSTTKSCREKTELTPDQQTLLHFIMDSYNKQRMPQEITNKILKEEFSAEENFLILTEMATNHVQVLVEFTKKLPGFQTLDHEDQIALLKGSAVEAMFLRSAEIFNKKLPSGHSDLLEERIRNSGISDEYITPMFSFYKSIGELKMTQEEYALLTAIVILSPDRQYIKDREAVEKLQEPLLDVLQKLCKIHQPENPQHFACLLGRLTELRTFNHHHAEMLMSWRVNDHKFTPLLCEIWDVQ

[4] = target: T3, Peroxisome proliferator-activated receptor alpha (Homo sapiens, UniProt Q07869); format: functional
T3 sequence (Q07869 whole entry): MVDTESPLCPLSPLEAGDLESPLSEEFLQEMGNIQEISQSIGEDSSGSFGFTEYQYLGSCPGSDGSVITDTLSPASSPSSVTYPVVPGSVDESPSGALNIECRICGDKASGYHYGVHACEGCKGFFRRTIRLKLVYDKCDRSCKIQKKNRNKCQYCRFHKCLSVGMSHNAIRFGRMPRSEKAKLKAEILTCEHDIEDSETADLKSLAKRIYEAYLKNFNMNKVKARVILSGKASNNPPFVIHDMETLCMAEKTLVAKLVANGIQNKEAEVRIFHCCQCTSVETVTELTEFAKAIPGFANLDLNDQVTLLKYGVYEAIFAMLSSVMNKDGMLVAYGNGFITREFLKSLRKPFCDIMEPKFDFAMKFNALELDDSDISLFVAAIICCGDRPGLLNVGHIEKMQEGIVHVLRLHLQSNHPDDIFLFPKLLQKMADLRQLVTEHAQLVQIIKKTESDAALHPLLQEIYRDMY

[5] = target: T4, Retinoic acid receptor alpha (Homo sapiens, UniProt P10276); format: functional, cell-based
T4 sequence (P10276 whole entry): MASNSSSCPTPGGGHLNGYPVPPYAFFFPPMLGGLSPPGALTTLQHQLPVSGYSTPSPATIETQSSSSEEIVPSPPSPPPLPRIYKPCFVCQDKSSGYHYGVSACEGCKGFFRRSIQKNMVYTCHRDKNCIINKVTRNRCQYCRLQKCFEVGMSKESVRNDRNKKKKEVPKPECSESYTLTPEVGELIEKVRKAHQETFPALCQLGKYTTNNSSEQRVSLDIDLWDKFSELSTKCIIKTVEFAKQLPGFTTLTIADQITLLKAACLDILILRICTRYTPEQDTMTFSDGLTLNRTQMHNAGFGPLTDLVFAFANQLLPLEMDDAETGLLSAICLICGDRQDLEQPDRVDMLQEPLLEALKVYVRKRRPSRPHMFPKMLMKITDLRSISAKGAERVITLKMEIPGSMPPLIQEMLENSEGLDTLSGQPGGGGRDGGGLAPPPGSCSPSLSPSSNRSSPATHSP

[6] = target: T5, Oxysterols receptor LXR-alpha (Homo sapiens, UniProt Q13133); format: functional
T5 sequence (Q13133 whole entry): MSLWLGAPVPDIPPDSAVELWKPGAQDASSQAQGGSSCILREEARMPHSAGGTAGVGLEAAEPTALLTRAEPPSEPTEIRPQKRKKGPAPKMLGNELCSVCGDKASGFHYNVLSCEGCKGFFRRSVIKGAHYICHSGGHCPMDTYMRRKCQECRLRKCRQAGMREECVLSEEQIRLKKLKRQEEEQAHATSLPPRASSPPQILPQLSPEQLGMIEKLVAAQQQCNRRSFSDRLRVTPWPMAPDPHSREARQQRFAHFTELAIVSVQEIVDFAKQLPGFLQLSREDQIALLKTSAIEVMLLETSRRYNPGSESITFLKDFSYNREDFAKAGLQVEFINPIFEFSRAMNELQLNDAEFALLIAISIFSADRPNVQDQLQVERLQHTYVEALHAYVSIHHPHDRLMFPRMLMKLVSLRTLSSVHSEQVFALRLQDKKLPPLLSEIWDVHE

[7] = target: T6, Oxysterols receptor LXR-beta (Homo sapiens, UniProt P55055); format: functional
T6 sequence (P55055 whole entry): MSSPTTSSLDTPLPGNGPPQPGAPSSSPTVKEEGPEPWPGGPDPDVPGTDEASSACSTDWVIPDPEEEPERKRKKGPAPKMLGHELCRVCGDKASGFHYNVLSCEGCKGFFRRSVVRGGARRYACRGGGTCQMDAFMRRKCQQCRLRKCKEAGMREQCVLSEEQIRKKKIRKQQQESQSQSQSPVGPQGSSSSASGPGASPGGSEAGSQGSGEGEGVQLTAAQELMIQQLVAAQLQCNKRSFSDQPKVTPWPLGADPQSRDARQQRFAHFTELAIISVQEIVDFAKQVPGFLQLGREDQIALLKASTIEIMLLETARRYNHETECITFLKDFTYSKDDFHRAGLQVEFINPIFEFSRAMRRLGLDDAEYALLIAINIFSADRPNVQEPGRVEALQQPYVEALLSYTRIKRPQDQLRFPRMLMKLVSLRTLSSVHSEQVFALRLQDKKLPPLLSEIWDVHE

[8] = target: T5, Oxysterols receptor LXR-alpha; format: functional; remark: listed apart in the source
Further: assay procedure not described here.

Chain of 5-hydroxytryptamine receptor 2B (P41595 whole entry): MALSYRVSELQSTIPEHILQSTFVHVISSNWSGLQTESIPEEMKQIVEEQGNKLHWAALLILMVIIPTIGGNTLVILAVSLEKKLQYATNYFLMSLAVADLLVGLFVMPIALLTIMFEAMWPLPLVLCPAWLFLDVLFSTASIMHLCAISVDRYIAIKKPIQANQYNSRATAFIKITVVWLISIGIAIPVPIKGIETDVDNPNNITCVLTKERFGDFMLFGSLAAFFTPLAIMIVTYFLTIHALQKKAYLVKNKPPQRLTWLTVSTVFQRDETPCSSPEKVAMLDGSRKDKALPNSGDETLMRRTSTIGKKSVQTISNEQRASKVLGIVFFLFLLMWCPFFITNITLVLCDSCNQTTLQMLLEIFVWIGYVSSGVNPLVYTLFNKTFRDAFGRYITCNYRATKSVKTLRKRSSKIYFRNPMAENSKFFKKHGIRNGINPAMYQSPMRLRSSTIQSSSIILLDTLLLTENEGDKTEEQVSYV

**Q.** How did the AC50 (Thromboxane A2 receptor [1]) turn out when `N=C(N)NC(=O)Cc1c(Cl)cccc1Cl` [GUANFACINE] was run?
**A.** > 30 µM

**Q.** What about the AC50 (Thromboxane A2 receptor [2]) of the same compound?
**A.** > 30 µM

**Q.** And the AC50 [3]?
**A.** 1.01 µM

**Q.** With `CC(=O)N1CCN(c2ccc(OCC3COC(Cn4ccnc4)(c4ccc(Cl)cc4Cl)O3)cc2)CC1` (centres undefined) [KETOCONAZOLE] as the compound, how does the AC50 (Bile acid receptor) read?
**A.** > 30 µM

**Q.** And the AC50 [4]?
**A.** > 30 µM

**Q.** What about the AC50 [5] of the same compound?
**A.** > 30 µM

**Q.** What about the AC50 [6] of the same compound?
**A.** > 30 µM

**Q.** And the AC50 [7]?
**A.** 4.7 µM

**Q.** And the AC50 [8]?
**A.** > 10 µM
